Source: patent US20240034729A9, “HETEROCYCLIC COMPOUND, INTERMEDIATE, PREPARATION METHOD THEREFOR AND APPLICATION THEREOF” (WUHAN LL SCIENCE AND TECHNOLOGY DEVELOPMENT CO., LTD., priority 2018, published 2024)
Where two headings read alike, the source gives them in different places.

Target: hP2X3 (human purinergic P2X receptor subtype 3) (Homo sapiens (Human), UniProt P56373)
Assay: FLIPR calcium assay, hP2X3 expressed in HEK293 cells
Format: cell-based
Conditions: read-out: P2X3 IC50
[1] = HEK293 cells expressing hP2X3, agonist BZ-ATP 2.5 μM, class symbols

Sequence of hP2X3 (human purinergic P2X receptor subtype 3) (P56373 whole entry): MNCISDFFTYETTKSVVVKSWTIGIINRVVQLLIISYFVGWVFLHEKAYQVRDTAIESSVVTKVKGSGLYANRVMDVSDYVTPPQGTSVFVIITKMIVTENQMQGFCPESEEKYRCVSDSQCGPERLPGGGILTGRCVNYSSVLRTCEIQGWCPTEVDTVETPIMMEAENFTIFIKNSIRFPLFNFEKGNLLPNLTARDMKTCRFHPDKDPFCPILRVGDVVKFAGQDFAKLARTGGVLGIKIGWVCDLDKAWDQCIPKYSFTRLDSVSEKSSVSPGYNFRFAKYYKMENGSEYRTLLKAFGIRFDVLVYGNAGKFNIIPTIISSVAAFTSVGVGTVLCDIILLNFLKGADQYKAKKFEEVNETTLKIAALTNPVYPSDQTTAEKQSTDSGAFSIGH

| IC50 [1] [nM] | Structure (SMILES) | IC50 [nM] |
| --- | --- | --- |
| 200 to 5000 | COC(=O)N1CCO[C@@H](Cc2c(-c3c(F)cc(-c4nc(C(C)(C)O)c[nH]4)cc3F)nc3cc(C)ccn23)C1 [Compound 115] | – |
| 200 to 5000 | CCOC(=O)N1CCO[C@@H](Cc2c(C(=O)Nc3cc(F)cc(F)c3)nc3cc(C)ccn23)C1 [Compound 20] | – |
| – | COC(=O)N1CCO[C@@H](Cc2c(-c3c(F)cc(-c4nc(C#N)c[nH]4)cc3F)nc3cc(C)ccn23)C1 [Compound 38, methyl (S)-2-((2-(2,6-difluoro-4-(4-cyano-1H-imidazol-2-yl)phenyl)-7-methylimidazo[1,2-a]pyridin-3-yl)methyl)morpholine-4-carboxylate] | < 10 |
| – | COC(=O)N1CCO[C@@H](Cc2c(-c3c(F)cc(-n4ccc(C(C)(C)O)n4)cc3F)nc3cc(C)ccn23)C1 [Compound 126, methyl (S)-2-((2-(2,6-difluoro-4-(3-(2-hydroxypropan-2-yl)-1H-pyrazol-1-yl)phenyl)-7-methylimidazo[1,2-a]pyridin-3-yl)methyl)morpholine-4-carboxylate] | 10 to 50 |
| 200 to 5000 | COC(=O)N1CCO[C@@H](Cc2c(-c3c(F)cc(-c4nc(C5(O)CC5)co4)cc3F)nc3cc(C)ccn23)C1 [Compound 118] | – |
| – | COC(=O)N1CCO[C@@H](Cc2c(-c3c(F)cc(NC(=O)C4CCC(=O)CC4)cc3F)nc3cc(C)ccn23)C1 [Compound 83] | 50 to 200 |
| – | COC(=O)N1CCO[C@@H](Cc2c(-c3c(F)cc(-n4ccc(C(C)(C)O)c4)cc3F)nc3cc(C)ccn23)C1 [Compound 135] | < 10 |
| – | COC(=O)N1CCO[C@@H](Cc2c(-c3c(F)cc(-n4cnc(C(F)(F)F)c4)cc3F)nc3cc(C)ccn23)C1 [Compound 109, methyl (S)-2-((2-(2,6-difluoro-4-(4-trifluoromethyl-1H-imidazol-1-yl)phenyl)-7-methylimidazo[1,2-a]pyridin-3-yl)methyl)morpholine-4-carboxylate] | 50 to 200 |
| – | COC(=O)N1CCO[C@@H](Cc2c(-c3c(F)cc(-n4ccc(C#N)c4)cc3F)nc3cc(C)ccn23)C1 [Compound 137] | 10 to 50 |
| – | CNC(=O)c1ccnc(Cc2c(-c3c(F)cc(S(N)(=O)=O)cc3F)nc3cc(C)ccn23)c1 [Compound 185] | 13 |
| – | C=CC(=O)Nc1cc(F)c(-c2nc3cc(C)ccn3c2C[C@H]2CN(C(=O)OC)CCO2)c(F)c1 [Compound 87] | 50 to 200 |
| – | CNC1(c2cc(F)c(-c3nc4cc(C)ccn4c3C[C@H]3CN(C(=O)OC)CCO3)c(F)c2)COC1 [Compound 69, methyl (S)-2-((2-(2,6-difluoro-4-(3-(methylamino)oxetan-3-yl)phenyl)-7-methylimidazo[1,2-a]pyridin-3-yl)methyl) morpholine-4-carboxylate] | 10 to 50 |
| 200 to 5000 | COC(=O)N1CCO[C@@H](Cc2c(-c3c(F)cc(-c4ncco4)cc3F)nc3cc(F)ccn23)C1 [Compound 122] | – |
| 200 to 5000 | COC(=O)N1CCO[C@@H](Cc2c(-c3cnc(NC(C)=O)[nH]3)nc3cc(C)ccn23)C1 [Compound 1] | – |
| – | CNC(=O)c1cc(F)c(-c2nc3cc(C)cnc3n2C[C@H]2CN(C(=O)OC)CCO2)c(F)c1 [Compound 94, methyl (S)-2-((2-(2,6-difluoro-4-(methylcarbamoyl)phenyl)-6-methyl-3H-imidazo[4,5-b]pyridin-3-yl)methyl)morpholine-4-carboxylate] | 50 to 200 |
| – | CNC(c1cc(F)c(-c2nc3cc(C)ccn3c2C[C@H]2CN(C(=O)OC)CCO2)c(F)c1)C(F)(F)F (stereo partly drawn) [Compound 68, methyl (S)-2-((2-(2,6-difluoro-4-(2,2,2-trifluoro-1-(methylamino)ethyl)phenyl)-7-methylimidazo[1,2-a]pyridin-3-yl)methyl)morpholine-4-carboxylate] | 10 to 50 |
| – | COC(=O)N1CCO[C@@H](Cc2c(-c3c(F)cc(-n4cnc(C#N)c4)cc3F)nc3cc(C)ccn23)C1 [Compound 192, methyl (S)-2-((2-(4-(4-cyano-1H-imidazol-1-yl)-2,6-difluorophenyl)-7-methylimidazo[1,2-a]pyridin-3-yl)methyl)morpholine-4-carboxylate] | 10 to 50 |
| 200 to 5000 | CNC(=O)c1cc(F)c(C2=CC3C=C(C)C=CN3N2C[C@H]2CN(C(=O)OC)CCO2)c(F)c1 (stereo partly drawn) [Compound 41] | – |
| – | CCOC(=O)c1cn(-c2cc(F)c(-c3nc4cc(C)ccn4c3C[C@H]3CN(C(=O)OC)CCO3)c(F)c2)cn1 [Compound 51, methyl (S)-2-((2-(4-(4-(carbethoxy<ethoxycarbonyl>)-1H-imidazol-1-yl)-2,6-difluorophenyl)-7-methylimidazo[1,2-a]pyridin-3-yl)methyl)morpholine-4-carboxylate] | 50 to 200 |

| IC50 [1] [nM] | Structure (SMILES) | IC50 [nM] |
| --- | --- | --- |
| – | COC(=O)N1CCO[C@@H](Cc2c(-c3c(F)cc(-c4ccc(C(=O)O)cn4)cc3F)nc3cc(C)ccn23)C1 [Compound 145] | 50 to 200 |
| – | COC(=O)N1CCO[C@@H](Cc2c(-c3c(F)cc(NC4CCC(=O)CC4)cc3F)nc3cc(C)ccn23)C1 [Compound 80, methyl (S)-2-((2-(2,6-difluoro-4-((4-carbonylcyclohexyl)amino)phenyl)-7-methylimidazo[1,2-a]pyridin-3-yl)methyl) morpholine-4-carboxylate] | 10 to 50 |
| – | COC(=O)N1CCO[C@@H](Cc2c(-c3cc(F)c(S(N)(=O)=O)cc3Cl)nc3cc(C)ccn23)C1 [Compound 180, methyl (S)-2-((2-(2-chloro-5-fluoro-4-sulfamoylphenyl)-7-methylimidazo[1,2-a]pyridin-3-yl)methyl)morpholine-4-carboxylate] | 0.2 |
| – | COC(=O)N1CCO[C@@H](Cc2c(-c3c(F)cc(-n4cnc(C(C)(C)O)c4)cc3F)nc3cc(C)ccn23)C1 [Compound 117, methyl (S)-2-((2-(2,6-difluoro-4-(4-(2-hydroxypropan-2-yl)-1H-imidazol-1-yl)phenyl)-7-methylimidazo[1,2-a]pyridin-3-yl)methyl)morpholine-4-carboxylate] | 10 to 50 |
| 200 to 5000 | CNC(=O)c1cc(F)c(-c2[nH]c3cc(C)ccc3c2C[C@H]2CN(C(=O)OC)CCO2)c(F)c1 [Compound 39] | – |
| – | COC(=O)N1CCO[C@@H](Cc2c(-c3c(F)cc(-c4nc(C(F)(F)F)c[nH]4)cc3F)nc3cc(C)ccn23)C1 [Compound 37, methyl (S)-2-((2-(2,6-difluoro-4-(4-trifluoromethyl-1H-imidazol-2-yl)phenyl)-7-methylimidazo[1,2-a]pyridin-3-yl)methyl)morpholine-4-carboxylate] | < 10 |
| – | COC(=O)N1CCO[C@@H](Cc2c(-c3c(F)cc(-n4cc(N)cn4)cc3F)nc3cc(C)ccn23)C1 [Compound 127, methyl (S)-2-((2-(4-(4-amino-1H-pyrazol-1-yl)-2,6-difluorophenyl)-7-methylimidazo[1,2-a]pyridin-3-yl)methyl)morpholine-4-carboxylate] | < 10 |
| – | CCC(=O)N1CCO[C@@H](Cc2c(-c3c(F)cc(NC(C)=O)cc3F)nc3cc(CF)ccn23)C1 [Compound 155] | < 10 |
| 10 to 50 | COC(=O)N1CCO[C@@H](Cc2c(-c3c(F)cc(-n4cnc(C(=O)O)c4)cc3F)nc3cc(C)ccn23)C1 [Compound 107, (S)-1-(3,5-difluoro-4-(3-((4-(carbomethoxy<methoxycarbonyl>)morpholin-2-yl)methyl)-7-methylimidazo[1,2-a]pyridin-2-yl)phenyl)-1H-imidazole-4-carboxylic acid] | – |
| – | CNC(=O)c1cc(F)c(-c2nc3n(c2C[C@H]2CN(C(=O)OC)CCO2)CCC(C)C3)c(F)c1 (stereo partly drawn) [Compound 44, methyl (2S)-2-((2-(2,6-difluoro-4-(methylcarbamoyl)phenyl)-7-methyl-5,6,7,8-tetrahydroimidazo[1,2-a]pyridin-3-yl)methyl)morpholine-4-carboxylate] | < 10 |
| – | COC(=O)N1CCO[C@@H](Cc2c(-c3c(F)cc(-c4ncc(C#N)o4)cc3F)nc3cc(C)ccn23)C1 [Compound 120] | < 10 |
| – | CNS(=O)(=O)c1cc(F)c(-c2nc3cc(C)ccn3c2C[C@H]2CN(C(=O)OC)CCO2)c(F)c1 [Compound 43, methyl (S)-2-((2-(2,6-difluoro-4-(N-methylsulfamoyl)phenyl)-7-methylimidazo[1,2-a]pyridin-3-yl)methyl)morpholine-4-carboxylate] | < 10 |
| – | COC(=O)N1CCO[C@@H](Cc2c(-c3c(F)cc(-c4nc(S(N)(=O)=O)c[nH]4)cc3F)nc3cc(C)ccn23)C1 [Compound 105] | < 10 |
| – | CNC(=O)c1cc(F)c(-c2nn3cc(C)ccc3c2C[C@H]2CN(C(=O)OC)CCO2)c(F)c1 [Compound 57] | < 10 |
| – | COC(=O)N1CCO[C@@H](Cc2c(-c3c(F)cc(-c4ccn(C(F)F)n4)cc3F)nc3cc(C)ccn23)C1 [Compound 102] | < 10 |
| 200 to 5000 | COC(=O)N1CCO[C@@H](Cc2c(-c3c(F)cc(-n4cc(O)cn4)cc3F)nc3cc(C)ccn23)C1 [Compound 128, methyl (S)-2-((2-(2,6-difluoro-4-(4-hydroxy-1H-pyrazol-1-yl)phenyl)-7-methylimidazo[1,2-a]pyridin-3-yl)methyl)morpholine-4-carboxylate] | – |
| – | COC(=O)N1CCO[C@@H](Cc2c(-c3c(F)cc(-n4ccc(C#N)n4)cc3F)nc3cc(C)ccn23)C1 [Compound 124] | < 10 |
| 200 to 5000 | CNC(=O)c1cc(F)c(-c2nc3cc(C)ccn3c2CN2CCOCC2=O)c(F)c1 [Compound 47, 3,5-difluoro-N-methyl-4-(7-methyl-3-((3-oxo-4-morpholinyl)methyl)imidazo[1,2-a]pyridin-2-yl)benzamide] | – |
| – | COC(=O)N1CCO[C@@H](Cc2c(-c3c(F)cc(NC(=O)c4ccc(C(=O)O)cc4)cc3F)nc3cc(C)ccn23)C1 [Compound 85, (S)-4-((3,5-difluoro-4-(3-((4-(carbomethoxy<methoxycarbonyl>)morpholin-2-yl)methyl)-7-methylimidazo[1,2-a]pyridin-2-yl)phenyl)carbamoyl)benzoic acid] | 50 to 200 |

| Structure (SMILES) | IC50 [1] [nM] | IC50 [nM] |
| --- | --- | --- |
| CNC(=O)Oc1cc(F)c(-c2nc3cc(C)ccn3c2C[C@H]2CN(C(=O)OC)CCO2)c(F)c1 [Compound 36, methyl (S)-2-((2-(2,6-difluoro-4-(methylcarbamoyloxy)phenyl)-7-methylimidazo[1,2-a]pyridin-3-yl)methyl)morpholine-4-carboxylate] | 10 to 50 | – |
